Like-named read-outs stand apart in the source and are kept apart here.
Key:
[1] = assay type: cell-based; details: rat, PC12 cells
[2] = system: caspase-3/7; assay: Apo-ONE Homogeneous Caspase-3/7 Assay in NIH3T3 cells; assay type: cell-based, mouse; details: 1 μM staurosporine alone, 6 hours
[3] = system: NIH3T3 cells; assay: JC-10 mitochondrial membrane potential assay; assay type: cell-based, mouse; details: 1 μM staurosporine alone, 6 hours
[4] = system: NIH3T3 cells; assay type: cell-based, mouse; details: 1 μM staurosporine alone, 24 hours
[5] = system: NIH3T3 cells; assay: MTT cell proliferation assay; assay type: cell-based, mouse; details: 1 μM staurosporine alone, 24 hours
[6] = assay type: cell-based; details: human, U87MG cells
[7] = assay type: cell-based; details: human, SH-SY5Y cells

For `CN[C@@H]1C[C@H]2O[C@@](C)([C@@H]1OC)n1c3ccccc3c3c4c(c5c6ccccc6n2c5c31)C(=O)NC4` [staurosporine], the viability at 24 h, 1 μM [1] was 4%, the “Caspase activation (caspase-3/7 activity)” value [2] was “induced significant caspase activation” and the Mitochondrial membrane potential [3] was “significantly lost mitochondrial membrane potential”. The Cell death [4] was “over 90%”, the “Cell viability by MTT” value [5] was “reduced the cell viability dramatically” and the viability at 24 h, 1 μM [6] was 8%. The viability at 24 h, 1 μM [7] was 6%.
